Measured values published in paper PMC11539218 (Antimicrobial Agents and Chemotherapy, 2024).

Key:
[1] = system: Peritoneal macrophages infected with L. (L.) infantum; test: Cytokines in infected macrophages (ELISA); type: cell-based, BALB/c mice; details: 48 and 72 h
Experimental: (§1) L. (L.) infantum (MHOM/BR/1972/LD) promastigotes were maintained in M199 medium supplemented with 10% FBS and 0.25% hemin, pH 7.2 at 24°C. Amastigotes were isolated from golden hamsters (M. auratus) by differential centrifugation of infected spleens and the parasite’s number was determined according to Stauber ([14]). Peritoneal macrophages were obtained from the peritoneal cavity of BALB/c mice and maintained in RPMI-1640 medium supplemented with 10% FBS, pH 7.2 at 37°C.
Peritoneal macrophages (1 × 10^6/well) were infected with L. (L.) infantum […] (10:1 amastigotes/macrophage) for 24 h, at 37°C with 5% CO2. Subsequently, compound 1 (10 and 60 µM) was added and the incubation followed the same conditions described above. Cell supernatants were collected after 48 and 72 h and the cytokines (IL-4, IL-10, IL-12, and INF-γ) were measured using the BD OptEIA Mouse ELISA set kits, according to the manufacturer’s instructions. Concanavalin A (5 µg/mL) was employed as positive control and untreated cells as negative control.

[2] = system: L. (L.) infantum promastigotes; test: Plasma membrane permeability (Sytox Green); type: cell-based, Leishmania (L.) infantum; details: compound 1 169.2 µM, Triton X-100 0.5%, up to 4 h
Experimental: Promastigotes (2 × 10^6/well) were pretreated with Sytox Green (1 µM) for 15 min, at 24°C. Then, compound 1 (169.2 µM) was added and the fluorescence was monitored every 20 min up to 4 h in a spectrofluorometer, with excitation and emission wavelengths of 485 and 535 nm, respectively ([17]). Triton X-100 (0.5% vol/vol) was employed as positive control and untreated parasites as negative control ([18]).

[3] = In vivo pharmacokinetic study, intraperitoneal; parameters: species or system Wistar rats; details: 5 mg/kg intraperitoneal; for half-life: 5 mg/kg
Experimental: The detection and quantification of compound 1 in the blood matrices were performed after sample processing, using a liquid-liquid extraction methodology. First, 100 µL of plasma was enriched with 10 µL of PI (0.8 µg/mL). Subsequently, 500 µL of hexane was added and the mixture was vortexed for 1 min and centrifuged at 22,082 × g for 5 min. The organic phase was collected in glass tubes and the aqueous phase was subjected to the liquid-liquid extraction procedure again. In the end, the combined organic samples were completely evaporated at 60°C under nitrogen flow and reconstituted in 100 µL of 40:60 ACN:H2O + 0.1% orthophosphoric acid (pH 2.08). Finally, the extracts were centrifuged at 22,082 × g for 2 min and injected into the chromatographic system. Chromatographic analyses by HPLC were performed using a C18 column (Purospher Star LiChroCART, 55 × 4 mm, 3 µm) with gradient elution (Table 1).
Compound 1 (5 mg/kg) was administered (10 mL/kg in saline-sodium-chloride-0.9%) by intraperitoneal route, to six Wistar rats. Blood samples were collected from the caudal vein at 30 min, 1, 2, 3, 5, 6, 8, 12, and 24 h post-dosing. Plasma samples were prepared as described in the previous section and analyzed by HPLC. Concentrations below the LLOQ were considered as zero. Pharmacokinetic profile was obtained using the WinNonlin 6.4 software, determining different parameters, including half-life time (T½); maximum time (Tmax); maximum plasma concentration (Cmax); area under the curve from time zero to the last measurable concentration time (AUC0-t); area under the curve from zero to infinity (AUC0-inf); percentage of area under the curve extrapolated from the last measurable concentration time to infinity (AUCextrap); and meantime of residence (MRT).

[4] = system: Peritoneal macrophages infected with L. (L.) infantum amastigotes; test: Nitric oxide in infected macrophages (Griess reagent); type: cell-based, BALB/c mice; details: compound 1 7.5 to 60 µM, LPS 25 µg/mL; 48 h; vs untreated
Experimental: as §1
Peritoneal macrophages (5 × 10^5/well) were infected with L. (L.) infantum amastigotes (10:1 amastigotes/macrophage) for 24 h, at 37°C with 5% CO2. Later, the cells were treated with compound 1 serially diluted (7.5 to 60 µM), under the same conditions described above. After 48 h, the supernatants were collected and incubated with Griess reagent ([28]). […] LPS (25 µg/mL) was employed as the positive control and untreated cells as the negative control ([29]).

[5] = system: L. (L.) infantum promastigotes; test: Short-time incubation IC50 assay in promastigotes (MTT); type: cell-based, Leishmania (L.) infantum; details: Leishmania infantum, promastigotes 2 × 10^6/well, 4 h of treatment, read-out: IC50 (50% inhibitory concentration), short-time incubation
Experimental: All experiments were performed with L. (L.) infantum promastigotes in the late-grown phase using a Hanks-Balanced Salt Solution medium supplemented with D-glucose (10 mM), exceptions were described. To establish the ideal time and concentration to investigate the mechanism of action (MoA), a new IC50 assay was performed in promastigotes in short-time incubation. Parasites (2 × 10^6/well) were treated with compound 1 serially diluted (1.6 to 300 µM) for 1, 2, 3, and 4 h, at 24°C. Parasite viability was determined using the MTT colorimetric method ([16]). Untreated cells were employed as a negative control.

[6] = system: L. (L.) infantum promastigotes; test: Adenosine triphosphate levels (luciferase bioluminescence); type: cell-based, Leishmania (L.) infantum; details: 169.2 µM; 2 and 4 h; vs untreated parasites
Experimental: Promastigotes (2 × 10^6/well) were treated with compound 1 (169.2 µM) for 2 and 4 h, at 24°C. Subsequently, the parasites were lysed with Triton X-100 (0.5%) and mixed with ATP Determination Kit standard reaction buffer (1 mM DTT, 0.5 mM luciferin, and 1.25 µg/mL luciferase), according to the manufacturer’s instructions. […] CCCP (10 µM) was employed as positive control and untreated parasites as negative control.

[7] = Wistar, rat, plasma, ip, female rats
[8] = Wistar, rat, plasma, ip, male rats
[9] = both sexes, rat, plasma, ip, single dose, Wistar rats, males + females (mean ± SD)

C=CCc1cc(OC)c(OCc2ccc(OC)cc2)c(Oc2ccc(CN3CCOCC3)cc2OC)c1 [compound 1, 4-(4-(5-allyl-3-methoxy-2-((4-methoxybenzyl)oxy)phenoxy)-3-methoxybenzyl)morpholine]
IL-10 levels ([1]; 10 and 60 µM, vs untreated control): reduction
IL-4 levels ([1]; only at 60 µM): significantly reduced levels
IL-12 levels ([1]; only at 60 µM): significantly reduced levels
INF-γ levels ([1]; only at 60 µM): significantly reduced levels
plasma membrane permeability [2]: no alteration
T1/2 ([3]; single dose, Wistar rats, males + females (mean ± SD)): 21.08 ± 17.72 h
AUC(0-t) [3, 7]: 980 ng·h/mL
Cmax [3, 7]: 200 ng/mL
MRT [3, 7]: 12.8 h
Tmax [3, 7]: 0.5 h
AUC(0-t) [3, 8]: 650 ng·h/mL
Cmax [3, 8]: 100 ng/mL
MRT [3, 8]: 41.1 h
Tmax [3, 8]: 1.5 h
half-life ([3]; both sexes, Wistar, rat, plasma, ip, single dose, Wistar rats, males + females (mean ± SD)): 21 h
AUC(0-inf) [3, 9]: 1270 ± 340 ng·h/mL
AUC(0-t) [3, 9]: 810 ± 300 ng·h/mL
Cmax [3, 9]: 150 ± 80 ng/mL
MRT [3, 9]: 26.9 ± 23.2 h
Tmax [3, 9]: 1 ± 1.22 h
half-life ([3]; female, Wistar, rat, plasma, ip, female rats): 10.7 h
half-life ([3]; male, Wistar, rat, plasma, ip, male rats): 31.4 h
NO levels [4]: remained similar
IC50 [5]: 169 µM
ATP concentration [6]: significant reduction
